*1 amine or outer side, *2 acyl side, *3 side chain or, on linkers, in order; H or OH if unused. Where a SMILES comes first, the peptide text is derived from it. Bridges are numbered along the chain shown (N, C = ends). [ ]: non-standard residue; d: D form. The star is where a group is joined. hPhe(3,5-F2-4-CF3) = N[C@@H](CCc1cc(F)c(C(F)(F)F)c(F)c1)C(=O)O; X38 = CC(C)CCN([C@@H](Cc1ccc(C(F)(F)F)cc1)C(=O)[*:2])[*:1]; hPhe(3-Cl-4-CF3) = N[C@@H](CCc1ccc(C(F)(F)F)c(Cl)c1)C(=O)O; NPrPhe(4-CF3) = CCCN[C@@H](Cc1ccc(C(F)(F)F)cc1)C(=O)O; dαMeAlg = C[C@](CC=[*:3])(N[*:1])C(=O)[*:2]; NMeGly(cPent) = CN[C@H](C(=O)O)C1CCCC1; NMeSer(allyl) = C=CCOC[C@H](NC)C(=O)O; Hyp = O=C(O)[C@@H]1C[C@@H](O)CN1; NMeD = CN[C@@H](CC(=O)O)C(=O)O; NMeL = CN[C@@H](CC(C)C)C(=O)O; Morpholide = C1CN(*)CCO1; NAllylGly = C=CCNCC(=O)O; Ac5c = NC1(C(=O)O)CCCC1; Aze = O=C(O)[C@@H]1CCN1; Ac4c = NC1(C(=O)O)CCC1; Sar = CNCC(=O)O
Columns and labels:
[1] = target: GDP-bound NRAS wild-type protein (Homo sapiens, UniProt P01111); test: Binding to NRAS by surface plasmon resonance (SPR), KD and KD ratio to KRAS
GDP-bound NRAS wild-type protein, sequence (P01111 whole entry): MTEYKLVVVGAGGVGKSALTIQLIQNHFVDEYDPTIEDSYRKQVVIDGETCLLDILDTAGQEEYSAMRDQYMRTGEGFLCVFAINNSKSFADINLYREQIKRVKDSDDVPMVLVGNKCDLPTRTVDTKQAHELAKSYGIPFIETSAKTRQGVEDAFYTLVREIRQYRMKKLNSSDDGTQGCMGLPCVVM
Method in brief: (§1)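 Captured GDP-RAS (~100–300 RU) was exposed to increasing compound concentrations, 75 s per step, in running buffer with 10 µM GDP, 10 mM MgCl2 and 4% DMSO at pH 7.4.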

[2] = target: HRAS wild-type protein (Homo sapiens, UniProt P01112); test: Binding to HRAS by surface plasmon resonance (SPR), KD and KD ratio to KRAS
HRAS wild-type protein, sequence (P01112 whole entry): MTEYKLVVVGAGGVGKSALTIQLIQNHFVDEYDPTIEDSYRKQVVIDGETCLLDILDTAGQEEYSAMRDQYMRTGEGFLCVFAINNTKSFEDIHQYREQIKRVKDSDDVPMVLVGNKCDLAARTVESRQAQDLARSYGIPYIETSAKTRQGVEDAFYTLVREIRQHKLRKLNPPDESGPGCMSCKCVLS
Method in brief: as §1

[3] = test system: human lung cancer strain NCI-H441; format: cell-based
Method in brief: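 Step one: dispense the test compound in serial DMSO dilutions. Step three: add the reagent and measure […].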

[4] = ratio of KD for GDP-bound NRAS wild-type protein to KD for KRAS
[5] = ratio of KD for HRAS wild-type protein to KD for KRAS
[6] = ratio of KD value for GDP-bound NRAS wild-type protein to KD value for KRAS (SPR)
[7] = ratio of KD value for HRAS wild-type protein to KD value for KRAS (SPR)
[8] = ratio of the KD value with respect to GDP-bound NRAS wild-type protein to the KD value with respect to KRAS
[9] = ratio of the KD value with respect to HRAS wild-type protein to the KD value with respect to KRAS

Row | IC50 [3] | Compound | NRAS /KRAS [1, 4] | HRAS /KRAS [2, 5] | NRAS /KRAS [1, 6] | HRAS /KRAS [2, 7] | NRAS /KRAS [1, 8] | HRAS /KRAS [2, 9]
1 | 52.5 nM | CCO[C@@H]1C[C@H]2C(=O)NC3(CCC3)C(=O)N(C)[C@@H](C3CCCC3)C(=O)N(C)[C@H](C(=O)N3CCOCC3)CC(=O)N(C)[C@@H](COC)C(=O)N[C@@H]([C@@H](C)CC)C(=O)NCC(=O)N(C)[C@H]3CCCCCN(C3=O)[C@@H](Cc3ccc(C(F)(F)F)cc3)C(=O)N(C)CC(=O)N[C@@H](CCc3cc(F)c(C(F)(F)F)c(F)c3)C(=O)N2C1 [PP0858] | B (a compound having 3 or more and less than 10 is denoted as B) | B (a compound having 3 or more and less than 10 is denoted as B) |  |  |  | 
2 | 55.9 nM | CCO[C@@H]1C[C@H]2C(=O)NC3(CCCC3)C(=O)N(C)[C@@H](C3CCCC3)C(=O)N(C)[C@H](C(=O)N(C)C)CC(=O)N(C)[C@@H](CC)C(=O)N[C@@H]([C@@H](C)CC)C(=O)N(C)CC(=O)N(C)[C@H]3C/C=C\CCN(C3=O)[C@@H](Cc3ccc(C(F)(F)F)cc3)C(=O)N(C)CC(=O)N[C@@H](CCc3cc(C)c(Cl)c(C)c3)C(=O)N2C1 [PP1823] |  |  | A (a compound having 10 or more and less than 20 is denoted as A) | A (a compound having 10 or more and less than 20 is denoted as A) |  | 
3 | 2.2 nM | CCO[C@@H]1C[C@H]2C(=O)NC3(CCC3)C(=O)N(C)[C@@H](C3CCCC3)C(=O)N(C)[C@H](C(=O)N3CCOCC3)CC(=O)N(C)[C@@H](CC(C)C)C(=O)N[C@@H]([C@@H](C)CC)C(=O)N(C)CC(=O)N(C)[C@H]3CCCCN(C3=O)[C@@H](Cc3ccc(C(F)(F)F)cc3)C(=O)N(C)CC(=O)N[C@@H](CCc3cc(F)c(C(F)(F)F)c(F)c3)C(=O)N2C1 [PP0578] |  |  |  |  | B (a compound having 3 or more and less than 10 is denoted as B) | B (a compound having 3 or more and less than 10 is denoted as B)
4 | 2.8 nM | CCCN1C(=O)[C@@H]2CCN2C(=O)CN(C)C(=O)[C@H]([C@@H](C)CC)NC(=O)[C@H](CC(C)C)N(C)C(=O)C[C@@H](C(=O)N2CCOCC2)N(C)C(=O)[C@H](C2CCCC2)N(C)C(=O)C2(CCC2)NC(=O)[C@@H]2C[C@@H](OCC)CN2C(=O)[C@H](CCc2ccc(C(F)(F)F)c(Cl)c2)NC(=O)CN(C)C(=O)[C@@H]1Cc1ccc(C(F)(F)F)cc1 [PP0411] ([NMeL]I[Sar][Aze][NPrPhe(4-CF3)][Sar][hPhe(3-Cl-4-CF3)][Hyp](Et)[Ac4c][NMeGly(cPent)][NMeD]-Morpholide; lactam N-11) |  |  |  |  | C (A compound having a KD ratio of 0.1 or more and less than 3 is denoted as C) | C (A compound having a KD ratio of 0.1 or more and less than 3 is denoted as C)
5 | 23.6 nM | CC[C@H](C)[C@@H]1NC(=O)[C@H](CC(C)C)N(C)C(=O)C[C@@H](C(=O)N(C)CC)N(C)C(=O)[C@H](C2CCCC2)N(C)C(=O)C2(CCC2)NC(=O)[C@@H]2C[C@@H](C)CN2C(=O)[C@H](CCc2ccc(C(F)(F)F)c(OC)c2)NC(=O)CN(C)C(=O)[C@H](Cc2ccc(C)cc2)N2CC/C=C\C[C@@H](C2=O)N(C)C(=O)CN(C)C1=O [PP1907] |  |  |  |  | AA (a compound having 20 or more is denoted as AA) | A (a compound having 10 or more and less than 20 is denoted as A)
6 | 9.3 nM | CC[C@H](C)[C@@H]1NC(=O)[C@H](CC(C)C)N(C)C(=O)C[C@@H](C(=O)N2CCOCC2)N(C)C(=O)[C@H](C2CCCC2)N(C)C(=O)C2(CCCC2)NC(=O)[C@@H]2CCCN2C(=O)[C@H](CCc2ccc(C(F)(F)F)c(Cl)c2)NC(=O)CN(C)C(=O)[C@H](Cc2ccc(C(F)(F)F)cc2)N(CCC(C)C)C(=O)CN(C)C(=O)CN(C)C1=O [PP0126] ([NMeL]I[Sar][Sar][X38][Sar][hPhe(3-Cl-4-CF3)]P[Ac5c][NMeGly(cPent)][NMeD]-Morpholide; lactam N-11) | C (A compound having a KD ratio of 0.1 or more and less than 3 is denoted as C) | C (A compound having a KD ratio of 0.1 or more and less than 3 is denoted as C) |  |  |  | 
7 | 90.3 nM | CCO[C@@H]1C[C@H]2C(=O)NC3(CCC3)C(=O)N(C)[C@@H](CC(F)F)C(=O)N(C)[C@H](C(=O)N3CCOCC3)CC(=O)N(C)[C@@H](CC(C)C)C(=O)N[C@@H]([C@@H](C)CC)C(=O)N(C)CC(=O)N(C)[C@H]3CCCCN(C3=O)[C@@H](Cc3ccc(C(F)(F)F)cc3)C(=O)N(C)CC(=O)N[C@@H](CCc3cc(F)c(C(F)(F)F)c(F)c3)C(=O)N2C1 [PP0813] | C (A compound having a KD ratio of 0.1 or more and less than 3 is denoted as C) | B (a compound having 3 or more and less than 10 is denoted as B) |  |  |  | 
8 | 19.8 nM | C=CCN1CC(=O)N(C)CC(=O)N(CCC)[C@@H](Cc2ccc(C(F)(F)F)cc2)C(=O)N(C)CC(=O)N[C@@H](CCc2ccc(C(F)(F)F)c(Cl)c2)C(=O)N2CCC[C@H]2C(=O)NC2(CCCC2)C(=O)N(C)[C@@H](C2CCCC2)C(=O)N(C)[C@H](C(=O)N2CCOCC2)CC(=O)N(C)[C@@H](CC(C)C)C(=O)N[C@@H]([C@@H](C)CC)C1=O [PP0749] ([NMeL]I[NAllylGly][Sar][NPrPhe(4-CF3)][Sar][hPhe(3-Cl-4-CF3)]P[Ac5c][NMeGly(cPent)][NMeD]-Morpholide; lactam N-11) |  |  |  |  | B (a compound having 3 or more and less than 10 is denoted as B) | C (A compound having a KD ratio of 0.1 or more and less than 3 is denoted as C)
9 | 18.7 nM | CCO[C@@H]1C[C@H]2C(=O)NC3(CC(C)(C)C3)C(=O)N(C)[C@@H](C(CC)CC)C(=O)N(C)[C@H](C(=O)N(C)C)CC(=O)N(C)[C@@H](CC3CC3)C(=O)N[C@@H]([C@@H](C)CC)C(=O)N(C)CC(=O)N(C)[C@H]3C/C=C\CCN(C3=O)[C@@H](Cc3ccc(C(F)(F)F)cc3)C(=O)N(C)CC(=O)N[C@@H](CCc3ccc(C(F)(F)F)c(Cl)c3)C(=O)N2C1 [PP2124] |  |  |  |  | AA (a compound having 20 or more is denoted as AA) | A (a compound having 10 or more and less than 20 is denoted as A)
10 | 13.4 nM | CCCN(C)C(=O)[C@@H]1CC(=O)N(C)[C@@H](CCOC)C(=O)N[C@@H]([C@@H](C)CC)C(=O)N(C)CC(=O)N(C)[C@H]2C/C=C\CCN(C2=O)[C@@H](Cc2ccc(C(F)(F)F)cc2)C(=O)N(C)CC(=O)N[C@@H](CCc2ccc(C(F)(F)F)c(OC)c2)C(=O)N2C[C@H](OCC)C[C@H]2C(=O)NC2(CC(C)(C)C2)C(=O)N(C)[C@@H](C2CCCC2)C(=O)N1C [PP1975] |  |  |  |  | A (a compound having 10 or more and less than 20 is denoted as A) | A (a compound having 10 or more and less than 20 is denoted as A)
11 | 16 nM | CCC[C@@H]1C[C@H]2C(=O)NC3(CC(C)(C)C3)C(=O)N(C)[C@@H](C3CCCC3)C(=O)N(C)[C@H](C(=O)N(C)C)CC(=O)N(C)[C@@H](C)C(=O)N[C@@H]([C@@H](C)CC)C(=O)N(C)CC(=O)N(C)[C@H]3C/C=C\CCN(C3=O)[C@@H](Cc3ccc(C(F)(F)F)cc3)C(=O)N(C)CC(=O)N[C@@H](CCc3cc(F)c(C(F)(F)F)c(F)c3)C(=O)N2C1 [PP2273] |  |  |  |  | AA (a compound having 20 or more is denoted as AA) | A (a compound having 10 or more and less than 20 is denoted as A)
12 | 5.3 nM | CCCOC[C@H]1C(=O)N[C@@H]([C@@H](C)CC)C(=O)N(C)CC(=O)N(C)[C@H]2C/C=C\CCN(C2=O)[C@@H](Cc2ccc(C(F)(F)F)cc2)C(=O)N(C)CC(=O)N[C@@H](CCc2cc(F)c(C(F)(F)F)c(F)c2)C(=O)N2C[C@H](OCC)C[C@H]2C(=O)NC2(CC(F)(F)C2)C(=O)N(C)[C@@H](C2CCCC2)C(=O)N(C)[C@H](C(=O)N(C)CCC)CC(=O)N1C [PP1744] |  |  | A (a compound having 10 or more and less than 20 is denoted as A) | A (a compound having 10 or more and less than 20 is denoted as A) |  | 
13 | 5.3 nM | CCC[C@H]1C(=O)N[C@@H]([C@@H](C)CC)C(=O)N(C)CC(=O)N(C)[C@H]2C/C=C\CCN(C2=O)[C@@H](Cc2ccc(C(F)(F)F)cc2)C(=O)N(C)CC(=O)N[C@@H](CCc2cc(Cl)c3sccc3c2)C(=O)N2C[C@H](OCC)C[C@H]2C(=O)NC2(CC(C)(C)C2)C(=O)N(C)[C@@H](C2CCCC2)C(=O)N(C)[C@H](C(=O)N(C)C)CC(=O)N1C [PP2946] | A (a compound having 10 or more and less than 20 is denoted as A) | A (a compound having 10 or more and less than 20 is denoted as A) |  |  |  | 
14 | 187 nM | CCC[C@H]1C(=O)N[C@@H]([C@@H](C)CC)C(=O)N(C)CC(=O)N(C)[C@H]2C/C=C\CCN(C2=O)[C@@H](Cc2ccc(C(F)(F)F)cc2)C(=O)N(C)CC(=O)N[C@@H](CCc2ccc(C(F)(F)F)c(OC)c2)C(=O)N2CC[C@H]2C(=O)NC2(CC(C)(C)C2)C(=O)N(C)[C@@H](C(CC)CC)C(=O)N(C)[C@H](C(=O)N(C)C)CC(=O)N1C [PP2936] | AA (a compound having 20 or more is denoted as AA) | A (a compound having 10 or more and less than 20 is denoted as A) |  |  |  | 
15 | 596 nM | CCCN1C(=O)CN(C)C(=O)CN(C)C(=O)[C@H]([C@@H](C)CC)NC(=O)[C@@H]2COCC=CC[C@@](C)(NC(=O)[C@@H]3C[C@@H](OCC)CN3C(=O)[C@H](CCc3cc(F)c(C(F)(F)F)c(F)c3)NC(=O)CN(C)C(=O)[C@@H]1Cc1ccc(C(F)(F)F)cc1)C(=O)N(C)[C@@H](C1CCCC1)C(=O)N(C)[C@H](C(=O)N1CCOCC1)CC(=O)N2C [PP0903] ([NMeSer(allyl)]I[Sar][Sar][NPrPhe(4-CF3)][Sar][hPhe(3,5-F2-4-CF3)][Hyp](Et)[dαMeAlg][NMeGly(cPent)][NMeD]-Morpholide; staple 1-9; lactam N-11) | B (a compound having 3 or more and less than 10 is denoted as B) | C (A compound having a KD ratio of 0.1 or more and less than 3 is denoted as C) |  |  |  | 
